Assay results from US8580790B2, “(Heterocycle/condensed piperidine)-(piperazinyl)-1-alkanone or (heterocycle/condensed pyrrolidine)-(piperazinyl)-1-alkanone derivatives and use thereof as p75 inhibitors” (Sanofi, priority 2009, dated 2013).
Counter-ions that a name gives are not always drawn.

SMILES | melting point
Cc1noc(-c2ccc(N3C[C@@H](C)N(CC(=O)N4CCc5nn(-c6ccccc6)cc5C4)[C@@H](C)C3)nc2)n1 [compound 91, 2-{(2S,6R)-2,6-dimethyl-4-[5-(3-methyl-[1,2,4]oxadiazol-5-yl)-pyridin-2-yl]piperazin-1-yl}-1-(2-phenyl-2,4,6,7-tetrahydropyrazolo[4,3-c]pyridin-5-yl)ethanone] | 168 to 171 °C
C[C@@H]1CN(c2ccc(C(F)(F)F)cn2)C[C@H](C)N1CC(=O)N1CCc2nc(-c3ccccc3)[nH]c2C1 [compound 110, 2-[(2S,6R)-2,6-dimethyl-4-(5-trifluoromethylpyridin-2-yl)piperazin-1-yl]-1-(2-phenyl-3,4,6,7-tetrahydroimidazo[4,5-c]pyridin-5-yl)ethanone] | 189 to 192 °C
C[C@@H]1CN(c2ccc3ccccc3n2)C[C@H](C)N1CC(=O)N1CCc2nn(-c3ccccc3)cc2C1 [compound 129, 2-((2S,6R)-2,6-dimethyl-4-quinolin-2-ylpiperazin-1-yl)-1-(2-phenyl-2,4,6,7-tetrahydropyrazolo[4,3-c]pyridin-5-yl)ethanone] | 203 to 204 °C
O=C(CN1CC2CCC(C1)N2c1ccc(-c2ncon2)cn1)N1CCc2nn(-c3ccccc3)cc2C1 | 201 to 202 °C
Cn1cc2c(n1)CCN(C(=O)CN1CC3CCC(C1)N3c1ccc(C(F)(F)F)cn1)C2 | 70 to 71 °C
O=C(O)c1ccc(N2C3CCC2CN(CC(=O)N2CCc4nc(-c5ccsc5)sc4C2)C3)nc1 | 262 to 264 °C
O=C(CN1CC2CC1CN2c1ccc(C(F)(F)F)cn1)N1CCc2nn(-c3ccccc3)cc2C1 (stereo not drawn) [compound 127, 1-(2-phenyl-2,4,6,7-tetrahydropyrazolo[4,3-c]pyridin-5-yl)-2-[5-(5-trifluoromethylpyridin-2-yl)-2,5-diazabicyclo[2.2.1]hept-2-yl]ethanone] | 174 to 175 °C
O=C(CN1CC2CCC(C1)N2c1cccnc1)N1CCc2nn(-c3ccc(C(F)(F)F)cn3)cc2C1 | 150 to 151 °C
O=C(CN1CCN(c2ccc(C(F)(F)F)cn2)C(=O)C1)N1CCc2nn(-c3ccccn3)cc2C1 [compound 119, 4-[2-oxo-2-(2-pyridin-2-yl-2,4,6,7-tetrahydropyrazolo[4,3-c]pyridin-5-yl)ethyl]-1-(5-trifluoromethylpyridin-2-yl)piperazin-2-one] | 139 to 140 °C
O=C(CN1CC2CCC(C1)N2c1ncc(F)cn1)N1CCc2nc(-c3ccccc3)oc2C1 | 193 °C
O=C(CN1CCN(c2ccc(C(F)(F)F)cn2)C(=O)C1)N1CCc2nc(-c3ccccc3)oc2C1 [compound 96, 4-[2-oxo-2-(2-phenyl-6,7-dihydro-4H-oxazolo[5,4-c]pyridin-5-yl)ethyl]-1-(5-trifluoromethylpyridin-2-yl)piperazin-2-one] | 175 °C
O=C(CN1CC2CCC(C1)N2c1cccnc1)N1CCc2nn(-c3ccccn3)cc2C1 | 61 to 62 °C
C[C@@H]1CN(c2ncc(F)cn2)C[C@H](C)N1CC(=O)N1CCc2nn(-c3ccccc3)cc2C1 [compound 17, 2-[(2S,6R)-4-(5-fluoropyrimidin-2-yl)-2,6-dimethylpiperazin-1-yl]-1-(2-phenyl-2,4,6,7-tetrahydropyrazolo[4,3-c]pyridin-5-yl)ethanone] | 174 to 175 °C
O=C(CN1CCN(c2ccnc3cc(Cl)ccc23)CC1)N1CCc2nn(-c3ccccc3)cc2C1 [compound 113, 2-[4-(7-chloroquinolin-4-yl)piperazin-1-yl]-1-(2-phenyl-2,4,6,7-tetrahydropyrazolo[4,3-c]pyridin-5-yl)ethanone] | 100 to 101 °C
O=C(CN1CC2CCC(C1)N2c1ncc(F)cn1)N1CCc2nc(-c3ccc(F)cc3)sc2C1 | 196 to 198 °C
C[C@@H]1CN(c2ccc(-c3nnn(C)n3)cn2)C[C@H](C)N1CC(=O)N1CCc2nn(-c3ccccc3)cc2C1 [compound 87, 2-{(2S,6R)-2,6-dimethyl-4-[5-(2-methyl-2H-tetrazol-5-yl)pyridin-2-yl]piperazin-1-yl}-1-(2-phenyl-2,4,6,7-tetrahydropyrazolo[4,3-c]pyridin-5-yl)ethanone] | 182 to 183 °C
C[C@@H]1CN(c2ccc(-c3nccs3)cn2)C[C@H](C)N1CC(=O)N1CCc2nn(-c3ccccc3)cc2C1 [compound 135, 2-[(2S,6R)-2,6-dimethyl-4-(5-thiazol-2-ylpyridin-2-yl)piperazin-1-yl]-1-(2-phenyl-2,4,6,7-tetrahydropyrazolo[4,3-c]pyridin-5-yl)ethanone] | 173 to 174 °C
O=C(O)c1ccc(N2CC3CCC(C2)N3CC(=O)N2CCc3nc(-c4ccccc4)sc3C2)nc1 | 250 to 251 °C
Cc1nc2c(s1)CN(C(=O)CN1CC3CCC(C1)N3c1ncc(F)cn1)CC2 | 137 to 138 °C
O=C(CN1CCN(c2ccc(C(F)(F)F)cn2)C(=O)C1)N1CCc2nc(-c3ccc(F)cc3)[nH]c2C1 [compound 120, 4-{2-[2-(4-fluorophenyl)-3,4,6,7-tetrahydroimidazo[4,5-c]pyridin-5-yl]-2-oxoethyl}-1-(5-trifluoromethylpyridin-2-yl)piperazin-2-one] | 190 to 192 °C
O=C(CN1CC2CCC(C1)N2c1ccc(C(F)(F)F)cn1)N1CCc2nc(-c3ccccc3)[nH]c2C1 | 150 to 152 °C

SMILES | melting point
C[C@@H]1CN(c2cncnc2)C[C@H](C)N1CC(=O)N1CCc2nn(-c3ccccc3)cc2C1 (as salt: HCl) [compound 16, 2-((2S,6R)-2,6-dimethyl-4-pyrimidin-5-yl-piperazin-1-yl)-1-(2-phenyl-2,4,6,7-tetrahydropyrazolo[4,3-c]pyridin-5-yl)ethanone] | 166 to 167 °C
COC(=O)c1ccc(N2C3CCC2CN(CC(=O)N2Cc4nc(-c5ccccc5)sc4C2)C3)nc1 | 252 to 253 °C
C[C@@H]1CN(c2cccnc2)C[C@H](C)N1CC(=O)N1CCc2nn(-c3ccncc3)cc2C1 [compound 141, 2-((2S,6R)-2,6-dimethyl-4-pyridin-3-ylpiperazin-1-yl)-1-(2-pyridin-4-yl-2,4,6,7-tetrahydropyrazolo[4,3-c]pyridin-5-yl)ethanone] | 163 to 164 °C
C[C@@H]1CN(c2ccc(S(C)(=O)=O)cn2)C[C@H](C)N1CC(=O)N1CCc2nn(-c3ccccc3)cc2C1 [compound 131, 2-[(2S,6R)-4-(5-methanesulphonylpyridin-2-yl)-2,6-dimethylpiperazin-1-yl]-1-(2-phenyl-2,4,6,7-tetrahydropyrazolo[4,3-c]pyridin-5-yl)ethanone] | 103 to 105 °C
C[C@@H]1CN(c2ccc(C(=O)O)cn2)C[C@H](C)N1CC(=O)N1CCc2nn(-c3ccccc3)cc2C1 [compound 149, 6-{(3S,5R)-3,5-dimethyl-4-[2-oxo-2-(2-phenyl-2,4,6,7-tetrahydropyrazolo[4,3-c]pyridin-5-yl)ethyl]piperazin-1-yl}nicotinic acid] | 208 to 209 °C
C[C@@H]1CN(c2ncc(C(=O)O)cn2)C[C@H](C)N1CC(=O)N1CCc2nc(-c3ccccc3)sc2C1 (as salt: sodium) [compound 72, 2-{(3S,5R)-3,5-dimethyl-4-[2-oxo-2-(2-phenyl-6,7-dihydro-4H-thiazolo[5,4-c]pyridin-5-yl)ethyl]piperazin-1-yl}pyrimidine-5-carboxylic acid] | 269 to 272 °C
O=C(CN1CC2CCC(C1)N2c1ncc(F)cn1)N1CCc2oc(-c3ccccc3)nc2C1 | 88 to 89 °C
O=C(CN1CC2CCC(C1)N2c1ncc(F)cn1)N1CCc2sc(-c3ccccc3)nc2C1 | 180 to 184 °C
O=C(CN1CCN(c2cccc(Cl)n2)CC1)N1CCc2nn(-c3ccccc3)cc2C1 [compound 114, 2-[4-(6-chloropyridin-2-yl)piperazin-1-yl]-1-(2-phenyl-2,4,6,7-tetrahydropyrazolo[4,3-c]pyridin-5-yl)ethanone] | 155 to 156 °C
C[C@@H]1CN(c2cccnc2)C[C@H](C)N1CC(=O)N1CCc2nn(-c3ccc(F)cn3)cc2C1 [compound 142, 2-((2S,6R)-2,6-dimethyl-4-pyridin-3-ylpiperazin-1-yl)-1-[2-(5-fluoropyridin-2-yl)-2,4,6,7-tetrahydropyrazolo[4,3-c]pyridin-5-yl]ethanone] | 180 to 181 °C
O=C(CN1CC2CCC(C1)N2c1ncc(F)cn1)N1CCc2nc(-c3ccccc3)[nH]c2C1 | 130 to 132 °C
O=C(CN1CC2CCC(C1)N2c1cccnc1)N1CCc2nn(-c3ccccc3)cc2C1 | 165 to 168 °C
COc1ccc(-c2nc3c(s2)CN(C(=O)CN2[C@H](C)CN(c4ncc(F)cn4)C[C@@H]2C)CC3)cc1 [compound 132, 2-[(2S,6R)-4-(5-fluoropyrimidin-2-yl)-2,6-dimethylpiperazin-1-yl]-1-[2-(4-methoxyphenyl)-6,7-dihydro-4H-thiazolo[5,4-c]pyridin-5-yl]ethanone] | 159 to 161 °C
O=C(CN1CCN(c2ccc(C(F)(F)F)cn2)C(=O)C1)N1CCc2nc(-c3cccnc3)sc2C1 [compound 84, 4-[2-oxo-2-(2-pyridin-3-yl-6,7-dihydro-4H-thiazolo[5,4-c]pyridin-5-yl)ethyl]-1-(5-trifluoromethylpyridin-2-yl)piperazin-2-one] | 180 to 183 °C
O=C(CN1CC2CCC(C1)N2c1ncc(F)cn1)N1CCc2n[nH]cc2C1 | 122 to 123 °C
COc1ccc(-n2ncc3c2CCN(C(=O)CN2CC4CCC(C2)N4c2ncc(F)cn2)C3)cc1 | 194 to 195 °C
O=C(CN1CC2CCC(C1)N2c1ncc(F)cn1)N1CCc2c(cnn2-c2ccc(C(F)(F)F)cc2)C1 | 162 to 164 °C
O=C(CN1CC2CCC(C1)N2c1ccc(C(F)(F)F)cn1)N1CCc2nn(-c3ccc(C(F)(F)F)cn3)cc2C1 | 192 to 193 °C
O=C(CN1CC2CCC(C1)N2c1ccc(-c2nnn[nH]2)cn1)N1CCc2nc(-c3ccccc3)sc2C1 | 201 to 202 °C
CCn1cc2c(n1)CCN(C(=O)CN1CC3CCC(C1)N3c1ccc(C(F)(F)F)cn1)C2 | 99 to 100 °C
O=C(CN1CC2CCC(C1)N2c1ccc(-c2noc(=O)[nH]2)cn1)N1CCc2nn(-c3ccccc3)cc2C1 | 176 to 179 °C
